According to patent US20200032350A1, “COMPANION DIAGNOSTICS FOR LEUKEMIA TREATMENT” (JOHANN WOLFGANG GOETHE-UNIVERSITÄT FRANKFURT AM MAIN, priority 2017, published 2020):

How the values were obtained:
[1] = tested on: H/M cells; experiment: colony formation and replating assay; format: cell-based, mouse
Description: (§1) To elucidate the molecular mechanisms underlying Meis1's contribution to leukemogenesis, a retroviral transplantation model was employed in which lineage-depleted mouse bone marrow cells were transduced with an MSCV-Hoxa9-PGK-neo construct, alone or in combination with an MSCV-Meis1-IRES-YFP construct that induced a 22-fold overexpression of Meis1. As reported by previously, the transformed cells could be cultured in vitro in the presence of IL3/IL6/SCF and expressed the expected immunophenotype characterized by the myeloid markers Mac-1 and Gr-1 as well as c-Kit (Pineault et al., 2005; Wang et al., 2005). When transplanted into irradiated recipient mice, cells transduced with Hoxa9 (H) or Hoxa9/Meis1 (H/M) gave rise to leukemia resulting in a median overall survival of 114 days and 41 days, respectively (p<0.001; FIG. 1A). This difference in survival is in accordance with previously published results and reflects the aggressiveness of Hoxa9/Meis1-driven AML observed in patients (Kroon et al., 1998).
The inventors next sought to characterize the functional consequences of Syk overexpression in the context of Hoxa9-driven leukemias. […]
To test whether the enhanced Syk signaling observed in H/M cells could be exploited therapeutically, the effects of Syk inhibitors and of an shRNA-mediated knockdown of Syk in H/M cells, in vitro and in vivo were analyzed.

[2] = tested on: H/S cells; experiment: colony formation and replating assay; format: cell-based, mouse
Description: (§2) The inventors next sought to characterize the functional consequences of Syk overexpression in the context of Hoxa9-driven leukemias. For this purpose, the consequences of a lentiviral overexpression of human SYK (hSYK) in H cells in vitro and in vivo were examined. […] While Hoxa9 alone is sufficient to enable replating, both Meis1 and hSYK enhanced replating efficiency.

[3] = tested on: H cells; experiment: colony formation and replating assay; format: cell-based, mouse
Description: as §1, §2

[4] = tested on: H cells; experiment: time-lapse microscopy and single-cell tracking; format: cell-based, mouse; conditions: compared with DMSO-treated cells, tracked over more than 50 hours
Method: (§3) The effect of Syk inhibition in H and H/M cells was further examined by monitoring the fate of individual cells and their progeny by time-lapse microscopy and single-cell tracking (Rieger et al., 2009). This allowed to track hundreds of H and H/M cells over more than 50 hours in real time and to record their history across cell generations. […] In addition, the inventors knocked down Syk in vivo by transplanting mice with cells that were either transduced with the doxycycline-inducible lentiviral Syk shRNAs or with control shRNAs and treating them with doxycycline for 43 days. Knockdown of Syk prolonged the survival of mice transplanted with H/M cells from a median time of 40.5 days in controls to a median of 103 days (p<0.001) (FIGS. 7C and 7D). Furthermore, mice transplanted with H/M or H cells were treated with the oral Syk inhibitor R788, a prodrug of R406.

[5] = tested on: H/M cells; experiment: time-lapse microscopy and single-cell tracking; format: cell-based, mouse; conditions: compared with DMSO-treated cells, tracked over more than 50 hours
Method: as §3

[6] = tested on: CD34+ progenitor cells isolated from healthy donors; experiment: relative viability of CD34+ bone marrow cells from healthy donors; format: cell-based, human
Method: Cells were treated for 24 h and DMSO was used as a control. (J) Relative viability of CD34+ bone marrow cells from healthy donors.

[7] = tested on: H/M cells; experiment: treatment of mice transplanted with H/M cells; format: in vivo
Description: (§4) FIG. 7. Meis1 sensitizes Hoxa9-driven leukemia to Syk inhibition. (A) SYK protein expression in H/M cells transfected with either a control shRNA (GL2) or two shRNAs targeting SYK. Actin was used as loading control for relative protein quantification. (B) Percentage of BFP-positive shRNA-expressing cells relative to BFP-negative shRNA-negative cells at the times indicated (mean±SD, normalized to day 0). (C) Same as (A), before and after five days of doxycycline (dox) treatment in vivo. (D) Kaplan-Meier survival curves of mice transplanted with H/M cells and treated with doxycycline for 43 days to express non-specific control and Syk-specific shRNA (n=8). p-value is from a Mantel-Cox test. (E) Percentage of YFP-positive cells from peripheral blood of mice transplanted with H (left) or H/M (right) cells after treating for 7 days with R788 or placebo. Measurements were taken at the indicated time points. The black line connects median values. (F) Kaplan-Meier survival curves of mice transplanted with either H or H/M cells and treated for 20 days with R788 or placebo (n=11). p-value is from a Mantel-Cox test. (G) Relative HOXA9 and MEIS1 mRNA expression in MV4-11 and KG1 cell lines, and in patient-derived AML cells as measured by qPCR, normalized to GAPDH expression (mean±SD, n=3). […] Actin was used as loading control for relative protein quantification. avg, average. […]

[8] = tested on: H cells; experiment: treatment of mice transplanted with H cells; format: in vivo
Description: as §4

Structure (SMILES) | colony formation potential and replating efficiency [1] | replating efficiency [1] | replating efficiency [2] | colony formation and replating efficiency [3] | cell death [4] | cell death [5] | viability [6] | reduction of the percentage of leukemic cells ([7]; seven days of treatment, oral, peripheral blood YFP-positive cells, on average) | median survival ([7]; treatment for 20 days, placebo median 38 days, p<0.001) [days] | level of H cells (percentage of leukemic cells) ([8]; seven days of treatment, oral) | survival ([8]; treatment for 20 days)
COc1cc(Nc2ncc(F)c(Nc3ccc4c(n3)NC(=O)C(C)(C)O4)n2)cc(OC)c1OC [R406] | significantly reduced | decreased replating efficiency | decreased replating efficiency | moderately affecting | not significantly affected | significant increase in cell death | did not affect the viability |  |  |  | 
COc1cc(Nc2ncc(F)c(Nc3ccc4c(n3)N(COP(=O)(O)O)C(=O)C(C)(C)O4)n2)cc(OC)c1OC [R788, fostamatinib] |  |  |  |  |  |  |  | more than 70% | 130 | barely affecting | No significant effect
